According to PubChem BioAssay AID2060483 (Molecular Pharmacology Branch, DTP, NCI, 2025):

Tested on: K24384-001-R-PDC complex spheroids, viability
Assay: Anticancer human tumor K24384-001-R-PDC patient-derived pancreatic adenocarcinoma cell line growth inhibition [GQUAD]
Settings: for IC50: curve of first compound; for viability, T/C: stronger effect = lower value; active = viability on the fitted dose curve at most 10% of control; inactive = the rest
Excerpt: DNA G-quadruplex Stabilizer Agents in Combinations in Complex Spheroids
A high-throughput screen of multi-cell type tumor spheroids was designed to identify active combinations of DNA G-quadruplex stabilizer agents and targeted small molecules. Complex spheroids include a stromal component modeled by human endothelial cells (HUVEC) and fibroblasts modeled by human mesenchymal stem cells (MSCs). The concentration ranges selected for each drug and investigational agent were based upon clinically achievable concentrations if the clinical Cmax of the agent was known.
Compounds. The drugs and investigational agents: pidnarulex (CX-5461; NSC782164), APTO-253 (NSC789042), BRACO-19 (NSC847499), peposertib (NSC802822), ceralasertib (NSC780249), elimusertib (NSC800525), camonsertib (NSC841442), AZD-1390 (NSC803789), olaparib (NSC753686), talazoparib (NSC767125), ART-558 (NSC835418), sotorasib (NSC818433), MRTX-1133 (NSC836407), SN-38 (NSC673596), topotecan (NSC609699), etoposide (NSC141540), doxorubicin (NSC123127), gemcitabine (NSC613327), 5-fluorouracil (NSC19893), paclitaxel (NSC125973), vemurafenib (NSC761431), panobinostat (NSC761190), R-306465 (JNJ-16241199; NSC773264), adavosertib (NSC754352), TP-3654 (NSC805149), carboplatin (NSC241240), KSQ-4279 (NSC840948), and staurosporine (NSC755774) were obtained from the National Cancer Institute (NCI) Developmental Therapeutics Program Chemical Repository (34). The FDA-approved anticancer drug set is available from the NCI Developmental Therapeutics Program. […] The stock solutions were prepared in dimethyl sulfoxide (DMSO, Sigma-Aldrich, St. Louis, MO, cat. D2650) at 800-fold the tested concentration and stored at -70 degrees C prior to their use. All drugs and investigational agents were tested over a range starting from a high concentration at or near the clinical Cmax and decreasing in half-log increments. If the clinical Cmax for an agent had not been determined, the highest concentration tested was 10 microM.
2.3 Cell Culture. All cells were maintained in an incubator at 37 degrees C and 5% CO2 with 95% humidity. The PDC lines were cultured according to standard operating procedures established by the NCI PDMR. All PDCs were thawed and cultured in Matrigel-coated flasks prepared with a working solution of 1X Ham's F-12 nutrient mix, without supplementation (Invitrogen, cat. 11765054), 100 U/mL penicillin-streptomycin (Invitrogen, cat. 15140122), and 2.5% Matrigel (Corning Inc., cat. 354248) for the first three passages. The 857933-349-R-J2-PDC line was cultured in 6C/Colon 1B media, which includes advanced DMEM/F-12 (Thermo Fisher Scientific, cat. 12634028), 10 mM HEPES (Thermo Fisher Scientific, cat. 15630080), 1X GlutaMAX supplement (Thermo Fisher Scientific, cat. 35050061), 0.1 mg/mL primocin (InvivoGen, cat. ant-pm-2), 10% defined fetal bovine serum, heat inactivated (HyClone Laboratories Inc., cat. SH30070.03HI), 50% L-WRN conditioned media (ATCC, cat. CRL-3276), 1.25 mM N-Acetyl-L-cysteine (Sigma-Aldrich, cat. A9165), 10 mM nicotinamide (Sigma-Aldrich, cat. N0636), 1X B-27 supplement (Thermo Fisher Scientific, cat. 17504044), 1X N-2 supplement (Thermo Fisher Scientific, cat. 17502048), 10 microM Y-27632 dihydrochloride (Tocris Bioscience, cat. 1254), and 50 ng/mL human EGF recombinant protein (Thermo Fisher Scientific, cat. PHG0311). The 485176-168-R4-J1-PDC line was cultured in Panc media, which includes all 6C/Colon 1B media components plus 100 ng/mL human FGF-10 (Thermo Fisher Scientific, cat. 100-26), 500 nM SB-431542 (Selleckchem, cat. S1067), and gastrin (Tocris, cat. 3006).
[…]

[1] = second compound 0.0316 µM, first compound 0.0316 µM
[2] = second compound 0.0316 µM, first compound 0.1 µM
[3] = second compound 0.0316 µM, first compound 0.316 µM
[4] = second compound 0.0316 µM, first compound 1 µM
[5] = second compound 0.0316 µM, first compound 3.16 µM
[6] = second compound 0.0316 µM, first compound 10 µM
[7] = second compound 0.1 µM, first compound 0.0316 µM
[8] = second compound 0.1 µM, first compound 0.1 µM
[9] = second compound 0.1 µM, first compound 0.316 µM
[10] = second compound 0.1 µM, first compound 1 µM
[11] = second compound 0.1 µM, first compound 3.16 µM
[12] = second compound 0.1 µM, first compound 10 µM
[13] = second compound 0.316 µM, first compound 0.0316 µM
[14] = second compound 0.316 µM, first compound 0.1 µM
[15] = second compound 0.316 µM, first compound 0.316 µM
[16] = second compound 0.316 µM, first compound 1 µM
[17] = second compound 0.316 µM, first compound 3.16 µM
[18] = second compound 0.316 µM, first compound 10 µM
[19] = second compound 1 µM, first compound 0.0316 µM
[20] = second compound 1 µM, first compound 0.1 µM
[21] = second compound 1 µM, first compound 0.316 µM
[22] = second compound 1 µM, first compound 1 µM
[23] = second compound 1 µM, first compound 3.16 µM
[24] = second compound 1 µM, first compound 10 µM
[25] = second compound 3.16 µM, first compound 0.0316 µM
[26] = second compound 3.16 µM, first compound 0.1 µM
[27] = second compound 3.16 µM, first compound 0.316 µM
[28] = second compound 3.16 µM, first compound 1 µM
[29] = second compound 3.16 µM, first compound 3.16 µM
[30] = second compound 3.16 µM, first compound 10 µM
[31] = second compound 10 µM, first compound 0.0316 µM
[32] = second compound 10 µM, first compound 0.1 µM
[33] = second compound 10 µM, first compound 0.316 µM
[34] = second compound 10 µM, first compound 1 µM
[35] = second compound 10 µM, first compound 3.16 µM
[36] = second compound 10 µM, first compound 10 µM
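Also: spheroids exposed to compounds for seven days.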

O=C(c1cc(Cc2n[nH]c(=O)c3ccccc23)ccc1F)N1CCN(C(=O)C2CC2)CC1 + Cc1cnc(CNC(=O)c2c(=O)c3ccc(N4CCCN(C)CC4)nc3n3c2sc2ccccc23)cn1
< 31.6 nM: IC50 (second compound 3.16 µM) | IC50 (second compound 10 µM)
31.6 nM: IC50 (second compound 1 µM)
inactive: viability, T/C [1] 88.4% | viability, T/C [2] 93.5% | viability, T/C [3] 92.8% | viability, T/C [4] 113% | viability, T/C [5] 94.8% | viability, T/C [6] 86.3% | viability, T/C [7] 71.8% | viability, T/C [8] 88.7% | viability, T/C [9] 66.9% | viability, T/C [10] 83.6% | viability, T/C [11] 70.9% | viability, T/C [12] 80.7% | viability, T/C [13] 62.5% | viability, T/C [14] 81.5% | viability, T/C [15] 60% | viability, T/C [16] 88.3% | viability, T/C [17] 88.7% | viability, T/C [18] 62.5% | viability, T/C [19] 53% | viability, T/C [20] 48.4% | viability, T/C [21] 49.1% | viability, T/C [22] 67.4% | viability, T/C [23] 60.2% | viability, T/C [24] 49.7% | viability, T/C [25] 43.5% | viability, T/C [26] 52.8% | viability, T/C [27] 47.6% | viability, T/C [28] 59.5% | viability, T/C [29] 38.3% | viability, T/C [30] 50.9% | viability, T/C [31] 40.5% | viability, T/C [32] 24.1% | viability, T/C [33] 43.3% | viability, T/C [34] 45.6% | viability, T/C [35] 27.9% | viability, T/C [36] 12.3%
> 10000 nM: IC50 (second compound 0.0316 µM) | IC50 (second compound 0.1 µM) | IC50 (second compound 0.316 µM)

C=CCn1c(=O)c2cnc(Nc3ccc(N4CCN(C)CC4)cc3)nc2n1-c1cccc(C(C)(C)O)n1 + Cc1cnc(CNC(=O)c2c(=O)c3ccc(N4CCCN(C)CC4)nc3n3c2sc2ccccc23)cn1
active: viability, T/C [33] 18% | viability, T/C [34] 6.25% | viability, T/C [35] 0.39% | viability, T/C [36] 0.2%
< 31.6 nM: IC50 (second compound 0.316 µM) | IC50 (second compound 1 µM) | IC50 (second compound 3.16 µM) | IC50 (second compound 10 µM)
350 nM: IC50 (second compound 0.1 µM)
487 nM: IC50 (second compound 0.0316 µM)
inactive: viability, T/C [1] 63.6% | viability, T/C [2] 76.6% | viability, T/C [3] 68.1% | viability, T/C [4] 18.3% | viability, T/C [5] 17.8% | viability, T/C [6] 23.2% | viability, T/C [7] 53.3% | viability, T/C [8] 65.2% | viability, T/C [9] 51.4% | viability, T/C [10] 27.1% | viability, T/C [11] 19.8% | viability, T/C [12] 18.1% | viability, T/C [13] 45.5% | viability, T/C [14] 50.1% | viability, T/C [15] 37.1% | viability, T/C [16] 26.7% | viability, T/C [17] 22.6% | viability, T/C [18] 17.5% | viability, T/C [19] 30.5% | viability, T/C [20] 49.7% | viability, T/C [21] 34.9% | viability, T/C [22] 36.9% | viability, T/C [23] 27.1% | viability, T/C [24] 22.9% | viability, T/C [25] 36.4% | viability, T/C [26] 39.7% | viability, T/C [27] 28.1% | viability, T/C [28] 31.8% | viability, T/C [29] 26% | viability, T/C [30] 15.8% | viability, T/C [31] 10% | viability, T/C [32] 10.6%
